# Calls of active or inactive are those of the source. No rule for the calls is given here.
# Tested on: CCRIS mutagenicity, Ames/micronucleus/aberration tests
# Assay: CCRIS mutagenicity studies
# [1] = Test System: AMES SALMONELLA TYPHIMURIUM, Strain/Indicator: TA98, Metabolic Activation: NONE, Method: PREINCUBATION
# [2] = Test System: AMES SALMONELLA TYPHIMURIUM, Strain/Indicator: TA100, Metabolic Activation: NONE, Method: STANDARD PLATE
# [3] = Test System: AMES SALMONELLA TYPHIMURIUM, Strain/Indicator: TA97, Metabolic Activation: NONE, Method: PREINCUBATION
# [4] = Test System: AMES SALMONELLA TYPHIMURIUM, Strain/Indicator: TA97, Metabolic Activation: RAT, LIVER, S-9, AROCLOR 1254, Method: PREINCUBATION
# [5] = Test System: AMES SALMONELLA TYPHIMURIUM, Strain/Indicator: TA100, Metabolic Activation: NONE, Method: PREINCUBATION
# [6] = Test System: AMES SALMONELLA TYPHIMURIUM, Strain/Indicator: TA100, Metabolic Activation: RAT, LIVER, S-9, AROCLOR 1254, Method: PREINCUBATION
# [7] = Test System: AMES SALMONELLA TYPHIMURIUM, Strain/Indicator: TA102, Metabolic Activation: NONE, Method: PREINCUBATION
# [8] = Test System: AMES SALMONELLA TYPHIMURIUM, Strain/Indicator: TA102, Metabolic Activation: RAT, LIVER, S-9, AROCLOR 1254, Method: PREINCUBATION
# [9] = Test System: AMES SALMONELLA TYPHIMURIUM, Strain/Indicator: TA98, Metabolic Activation: NONE, Method: STANDARD PLATE
smiles,measurement,setting,value
NC(CS)C(=O)O (configuration not stated),mutagenic call,"Test System: AMES SALMONELLA TYPHIMURIUM, Strain/Indicator: TA98, Metabolic Activation: RAT LIVER S-9, CHLOROPHENE, Method: STANDARD PLATE (COMPOUND HEATED AT 250 DEGREES CELSIUS FOR 20 MIN)",inactive; negative
O=[N+]([O-])c1ccc(-c2ccccc2)c([N+](=O)[O-])c1,mutagenic call,[1],active; positive
same,mutagenic call,"Test System: AMES SALMONELLA TYPHIMURIUM, Strain/Indicator: TA98, Metabolic Activation: RAT, LIVER, S-9, PCB (10%), Method: PREINCUBATION",active; positive
O=[N+]([O-])c1ccc2sncc2c1,mutagenic call,[2],active; positive
O.O.O.O=C([O-])COc1ccccc1.O=C([O-])COc1ccccc1.[Cu+2],mutagenic call,[3],inactive; negative
same,mutagenic call,[4],inactive; negative
same,mutagenic call,[5],inactive; negative
same,mutagenic call,[6],inactive; negative
same,mutagenic call,[7],inactive; negative
same,mutagenic call,[8],inactive; negative
Cc1nccc2c1[nH]c1ccccc12,mutagenic call,[3],active; positive
same,mutagenic call,[4],inactive; negative
same,mutagenic call,[1],inactive; negative
same,mutagenic call,"Test System: AMES SALMONELLA TYPHIMURIUM, Strain/Indicator: TA98, Metabolic Activation: RAT, LIVER, S-9, AROCLOR 1254, Method: PREINCUBATION",inactive; negative
same,mutagenic call,[5],inactive; negative
same,mutagenic call,[6],inactive; negative
same,mutagenic call,[7],inactive; negative
same,mutagenic call,[8],inactive; negative
Nc1ccc2c(N)c3ccccc3nc2c1,mutagenic call,"Test System: AMES SALMONELLA TYPHIMURIUM, Strain/Indicator: TA1535, Metabolic Activation: NONE, Method: PREINCUBATION",inactive; negative
same,mutagenic call,"Test System: AMES SALMONELLA TYPHIMURIUM, Strain/Indicator: TA1535, Metabolic Activation: RAT, LIVER, S-9, TETRACHLOROBIPHENYL, Method: PREINCUBATION",inactive; negative
same,mutagenic call,"Test System: AMES SALMONELLA TYPHIMURIUM, Strain/Indicator: TA1537, Metabolic Activation: NONE, Method: PREINCUBATION",active; positive
same,mutagenic call,"Test System: AMES SALMONELLA TYPHIMURIUM, Strain/Indicator: TA1537, Metabolic Activation: RAT, LIVER, S-9, TETRACHLOROBIPHENYL, Method: PREINCUBATION",active; positive
same,mutagenic call,"Test System: AMES SALMONELLA TYPHIMURIUM, Strain/Indicator: TA1538, Metabolic Activation: NONE, Method: PREINCUBATION",active; positive
same,mutagenic call,"Test System: AMES SALMONELLA TYPHIMURIUM, Strain/Indicator: TA1538, Metabolic Activation: RAT, LIVER, S-9, TETRACHLOROBIPHENYL, Method: PREINCUBATION",active; positive
same,mutagenic call,"Test System: AMES SALMONELLA TYPHIMURIUM, Strain/Indicator: TA1977, Metabolic Activation: NONE, Method: PREINCUBATION",active; positive
same,mutagenic call,"Test System: AMES SALMONELLA TYPHIMURIUM, Strain/Indicator: TA1977, Metabolic Activation: RAT, LIVER, S-9, TETRACHLOROBIPHENYL, Method: PREINCUBATION",active; positive
same,mutagenic call,"Test System: AMES SALMONELLA TYPHIMURIUM, Strain/Indicator: TA1978, Metabolic Activation: NONE, Method: PREINCUBATION",inactive; negative
same,mutagenic call,"Test System: AMES SALMONELLA TYPHIMURIUM, Strain/Indicator: TA1978, Metabolic Activation: RAT, LIVER, S-9, TETRACHLOROBIPHENYL, Method: PREINCUBATION",inactive; negative
CCN(CC)CCCNC(=O)N/N=C/c1ccc([N+](=O)[O-])o1,mutagenic call,"Test System: E. COLI, Strain/Indicator: WP2 UVRA, Metabolic Activation: NONE, Method: SPOT",active; positive
O=[N+]([O-])c1ccc2c(c1)-c1cccc3cccc-2c13,mutagenic call,[9],active; positive
c1ccc2c(c1)sc1ccccc12,mutagenic call,"Test System: CHINESE HAMSTER OVARY, Strain/Indicator: CHO-K1-BH4 (HGPRT)/6-THIOGUANINE, Metabolic Activation: RAT, LIVER, S-9, AROCLOR (4%)",inactive; negative
O=CNc1ccc(Oc2ccccc2)cc1,mutagenic call,[2],inactive; negative
same,mutagenic call,"Test System: AMES SALMONELLA TYPHIMURIUM, Strain/Indicator: TA100, Metabolic Activation: RAT, LIVER, S-9, KANECLOR 500, Method: STANDARD PLATE",active; positive
O=C(O)c1ccco1,mutagenic call,[9],inactive; negative
same,mutagenic call,[2],inactive; negative
Cc1ccc2ccc([N+](=O)[O-])cc2c1,mutagenic call,[1],active; positive
Cc1ncc([N+](=O)[O-])n1C,mutagenic call,"Test System: AMES SALMONELLA TYPHIMURIUM, Strain/Indicator: TA97, Metabolic Activation: NONE, Method: STANDARD PLATE",active; positive
same,mutagenic call,"Test System: AMES SALMONELLA TYPHIMURIUM, Strain/Indicator: TA97, Metabolic Activation: RAT, LIVER, S-9, AROCLOR 1254, Method: STANDARD PLATE",active; positive
same,mutagenic call,[9],active; positive
same,mutagenic call,"Test System: AMES SALMONELLA TYPHIMURIUM, Strain/Indicator: TA98, Metabolic Activation: RAT, LIVER, S-9, AROCLOR 1254, Method: STANDARD PLATE",active; positive
same,mutagenic call,[2],active; positive
same,mutagenic call,"Test System: AMES SALMONELLA TYPHIMURIUM, Strain/Indicator: TA100, Metabolic Activation: RAT, LIVER, S-9, AROCLOR 1254, Method: STANDARD PLATE",active; positive
same,mutagenic call,"Test System: AMES SALMONELLA TYPHIMURIUM, Strain/Indicator: TA102, Metabolic Activation: NONE, Method: STANDARD PLATE",active; positive
same,mutagenic call,"Test System: AMES SALMONELLA TYPHIMURIUM, Strain/Indicator: TA102, Metabolic Activation: RAT, LIVER, S-9, AROCLOR 1254, Method: STANDARD PLATE",active; positive
Cc1ccc2ccc3c4ccccc4ccc3c2c1,mutagenic call,"Test System: AMES SALMONELLA TYPHIMURIUM, Strain/Indicator: TA100, Metabolic Activation: RAT, LIVER, MICROSOMES, 3-METHYLCHRYSENE, Method: STANDARD PLATE",inactive; negative
same,mutagenic call,"Test System: AMES SALMONELLA TYPHIMURIUM, Strain/Indicator: TA100, Metabolic Activation: RAT, LIVER, MICROSOMES, AROCLOR 1254, Method: STANDARD PLATE",active; positive
same,mutagenic call,"Test System: AMES SALMONELLA TYPHIMURIUM, Strain/Indicator: TA100, Metabolic Activation: RAT, LIVER, MICROSOMES, Method: STANDARD PLATE",inactive; negative
CN(CCCl)c1ccc(/C=C/C2=[N+](C)c3ccccc3C2(C)C)cc1,mutagenic call,"Test System: Ames Salmonella typhimurium, Strain/Indicator: TA98, Metabolic Activation: None, Method: Preincubation",inactive; negative
same,mutagenic call,"Test System: Ames Salmonella typhimurium, Strain/Indicator: TA98, Metabolic Activation: Rat, Liver, S-9, Aroclor 1254, Method: Preincubation",inactive; negative
same,mutagenic call,"Test System: Ames Salmonella typhimurium, Strain/Indicator: TA100, Metabolic Activation: None, Method: Preincubation",inactive; negative
same,mutagenic call,"Test System: Ames Salmonella typhimurium, Strain/Indicator: TA100, Metabolic Activation: Rat, Liver, S-9, Aroclor 1254, Method: Preincubation",inactive; negative
same,mutagenic call,"Test System: Ames Salmonella typhimurium, Strain/Indicator: TA102, Metabolic Activation: None, Method: Preincubation",inactive; negative
same,mutagenic call,"Test System: Ames Salmonella typhimurium, Strain/Indicator: TA102, Metabolic Activation: Rat, Liver, S-9, Aroclor 1254, Method: Preincubation",inactive; negative
same,mutagenic call,"Test System: Ames Salmonella typhimurium, Strain/Indicator: TA1535, Metabolic Activation: None, Method: Preincubation",inactive; negative
same,mutagenic call,"Test System: Ames Salmonella typhimurium, Strain/Indicator: TA1535, Metabolic Activation: Rat, Liver, S-9, Aroclor 1254, Method: Preincubation",inactive; negative
FC(F)(F)c1ccc(Cl)c(Cl)c1,mutagenic call,"Test System: E. coli, Strain/Indicator: WP2uvrA/pKM101, Metabolic Activation: None, Method: Preincubation",inactive; negative
same,mutagenic call,"Test System: E. coli, Strain/Indicator: WP2uvrA/pKM101, Metabolic Activation: Rat, Liver, S9, Sodium phenobarbital and 5,6-benzoflavone, Method: Preincubation",inactive; negative
